Source: publication PMC10114980, “Triple targeting of mutant EGFR^L858R/T790M, COX-2, and 15-LOX: design and synthesis of novel quinazolinone tethered phenyl urea derivatives for anti-inflammatory and anticancer evaluation” (Journal of Enzyme Inhibition and Medicinal Chemistry, 2023)

How the values were obtained:
OVCAR-8 = assay: NCI single dose screen, OVCAR-8; type: cell-based; settings: Homo sapiens; OVCAR-8, ovarian cancer; single dose 10^−5 M; read-out: growth inhibition percentage
Description: (§1) Screening of the anticancer activity of the newly synthesised compounds (6a, 6c, 6d, 6e, 6j, 6l, 6m, 6n, 6o, and 6p) was performed by the US National Cancer Institute (NCI) using 60 different human tumour cell lines in accordance with standard procedures formerly reported.
(§2) In vitro anticancer screening was carried out for the selected compounds at a single dose (10^−5 M) against 60 different human tumour cell lines of nine different cancer cell types: leukaemia, lung, colon, CNS, melanoma, ovarian, renal, prostate, and breast cancers.

SR = assay: NCI single dose screen, SR; type: cell-based; settings: Homo sapiens, leukaemia, single dose 10^−5 M, read-out: growth inhibition percentage
Description: as §1, §2

HCC-2998 = assay: NCI single dose screen, HCC-2998; type: cell-based; settings: Homo sapiens; HCC-2998, colon cancer; single dose 10^−5 M; read-out: growth inhibition percentage
Description: as §1, §2

NCI-H23 = assay: NCI single dose screen, NCI-H23; type: cell-based; settings: Homo sapiens; NCI-H23, non-small cell lung cancer; single dose 10^−5 M; read-out: growth inhibition percentage
Description: as §1, §2

SW-620 = assay: NCI single dose screen, SW-620; type: cell-based; settings: Homo sapiens; SW-620, colon cancer; single dose 10^−5 M; read-out: growth inhibition percentage
Description: as §1, §2

OVCAR-3 = assay: NCI single dose screen, OVCAR-3; type: cell-based; settings: Homo sapiens; OVCAR-3, ovarian cancer; single dose 10^−5 M; read-out: growth inhibition percentage
Description: as §1, §2

RPMI-8226 = assay: NCI single dose screen, RPMI-8226; type: cell-based; settings: Homo sapiens; RPMI-8226, leukaemia; single dose 10^−5 M; read-out: growth inhibition percentage
Description: as §1, §2

M14 = assay: NCI single dose screen, M14; type: cell-based; settings: Homo sapiens; M14, melanoma; single dose 10^−5 M; read-out: growth inhibition percentage
Description: as §1, §2

SF-268 = assay: NCI single dose screen, SF-268; type: cell-based; settings: Homo sapiens; SF-268, CNS cancer; single dose 10^−5 M; read-out: growth inhibition percentage
Description: as §1, §2

human recombinant COX-2 = target: T1, human recombinant COX-2 (Homo sapiens, UniProt P35354); assay: In vitro COX-2 inhibition assay kit (Cayman); type: biochemical; settings: for IC50: human recombinant COX-2, mean ± SEM, n = 3 replicates; for COX-2 SI: Selectivity index = COX-1 IC50/COX-2 IC50
T1 sequence (P35354 18-604): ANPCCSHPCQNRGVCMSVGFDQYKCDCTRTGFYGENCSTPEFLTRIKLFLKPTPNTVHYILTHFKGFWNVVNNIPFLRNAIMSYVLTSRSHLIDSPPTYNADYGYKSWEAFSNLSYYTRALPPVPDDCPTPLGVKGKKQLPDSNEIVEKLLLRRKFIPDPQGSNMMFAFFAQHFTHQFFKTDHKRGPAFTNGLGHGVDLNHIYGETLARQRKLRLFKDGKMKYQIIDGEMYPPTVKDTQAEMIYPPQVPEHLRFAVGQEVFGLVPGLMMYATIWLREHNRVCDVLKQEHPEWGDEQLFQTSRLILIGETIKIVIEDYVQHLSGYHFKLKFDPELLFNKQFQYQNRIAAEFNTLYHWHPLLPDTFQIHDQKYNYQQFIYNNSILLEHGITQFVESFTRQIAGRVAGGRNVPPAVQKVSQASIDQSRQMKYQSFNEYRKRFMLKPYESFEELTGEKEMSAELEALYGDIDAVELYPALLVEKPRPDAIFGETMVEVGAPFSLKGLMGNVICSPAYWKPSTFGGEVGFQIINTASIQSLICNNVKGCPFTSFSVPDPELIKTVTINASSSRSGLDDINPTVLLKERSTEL
Description: (§3) The half-maximal inhibitory concentration (IC50, μM) was determined, and the COX-2 selectivity index (SI) was calculated as IC50 (COX-1)/IC50 (COX-2).

HT29 = assay: NCI single dose screen, HT29; type: cell-based; settings: Homo sapiens, HT-29; HT29, colon cancer; single dose 10^−5 M; read-out: growth inhibition percentage
Description: as §1, §2

SNB-75 = assay: NCI single dose screen, SNB-75; type: cell-based; settings: Homo sapiens; SNB-75, CNS cancer; single dose 10^−5 M; read-out: growth inhibition percentage
Description: as §1, §2

ACHN = assay: NCI single dose screen, ACHN; type: cell-based; settings: Homo sapiens, renal cancer, single dose 10^−5 M, read-out: growth inhibition percentage
Description: as §1, §2

A498 = assay: NCI single dose screen, A498; type: cell-based; settings: Homo sapiens; A498, renal cancer; single dose 10^−5 M; read-out: growth inhibition percentage
Description: as §1, §2

ovine COX-1 = target: T2, ovine COX-1 (Ovis aries, UniProt P05979); assay: In vitro COX-1 inhibition assay kit (Cayman); type: biochemical; settings: mean ± SEM, n = 3 replicates
T2 sequence (P05979 25-600): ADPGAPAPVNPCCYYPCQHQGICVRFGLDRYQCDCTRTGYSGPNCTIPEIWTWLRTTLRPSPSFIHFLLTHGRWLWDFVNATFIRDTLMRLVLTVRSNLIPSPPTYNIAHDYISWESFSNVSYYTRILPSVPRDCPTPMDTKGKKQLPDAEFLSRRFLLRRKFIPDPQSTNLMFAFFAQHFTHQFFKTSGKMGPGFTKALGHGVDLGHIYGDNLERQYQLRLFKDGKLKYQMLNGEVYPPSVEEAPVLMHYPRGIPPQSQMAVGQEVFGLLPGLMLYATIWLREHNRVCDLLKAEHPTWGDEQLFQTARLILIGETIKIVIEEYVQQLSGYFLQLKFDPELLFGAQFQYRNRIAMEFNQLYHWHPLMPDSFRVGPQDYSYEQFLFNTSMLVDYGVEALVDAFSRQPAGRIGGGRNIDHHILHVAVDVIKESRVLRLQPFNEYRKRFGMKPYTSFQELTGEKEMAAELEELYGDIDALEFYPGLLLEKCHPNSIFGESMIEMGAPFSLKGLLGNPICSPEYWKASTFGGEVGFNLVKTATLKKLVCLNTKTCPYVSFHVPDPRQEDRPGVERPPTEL
Description: as §3

NCI-H322M = assay: NCI single dose screen, NCI-H322M; type: cell-based; settings: Homo sapiens, non-small cell lung cancer, single dose 10^−5 M, read-out: growth inhibition percentage
Description: as §1, §2

KM12 = assay: NCI single dose screen, KM12; type: cell-based; settings: Homo sapiens; KM12, colon cancer; single dose 10^−5 M; read-out: growth inhibition percentage
Description: as §1, §2

wild-type EGFR = target: T3, wild-type EGFR (Homo sapiens, UniProt P00533); assay: In vitro EGFR inhibition assay, wild type; type: biochemical; settings: read-out: EGFR^WT IC50
T3 construct: purchased AssayQuant Technologies, Inc. (Marlboro, MA, USA)
T3 sequence (P00533 25-1210): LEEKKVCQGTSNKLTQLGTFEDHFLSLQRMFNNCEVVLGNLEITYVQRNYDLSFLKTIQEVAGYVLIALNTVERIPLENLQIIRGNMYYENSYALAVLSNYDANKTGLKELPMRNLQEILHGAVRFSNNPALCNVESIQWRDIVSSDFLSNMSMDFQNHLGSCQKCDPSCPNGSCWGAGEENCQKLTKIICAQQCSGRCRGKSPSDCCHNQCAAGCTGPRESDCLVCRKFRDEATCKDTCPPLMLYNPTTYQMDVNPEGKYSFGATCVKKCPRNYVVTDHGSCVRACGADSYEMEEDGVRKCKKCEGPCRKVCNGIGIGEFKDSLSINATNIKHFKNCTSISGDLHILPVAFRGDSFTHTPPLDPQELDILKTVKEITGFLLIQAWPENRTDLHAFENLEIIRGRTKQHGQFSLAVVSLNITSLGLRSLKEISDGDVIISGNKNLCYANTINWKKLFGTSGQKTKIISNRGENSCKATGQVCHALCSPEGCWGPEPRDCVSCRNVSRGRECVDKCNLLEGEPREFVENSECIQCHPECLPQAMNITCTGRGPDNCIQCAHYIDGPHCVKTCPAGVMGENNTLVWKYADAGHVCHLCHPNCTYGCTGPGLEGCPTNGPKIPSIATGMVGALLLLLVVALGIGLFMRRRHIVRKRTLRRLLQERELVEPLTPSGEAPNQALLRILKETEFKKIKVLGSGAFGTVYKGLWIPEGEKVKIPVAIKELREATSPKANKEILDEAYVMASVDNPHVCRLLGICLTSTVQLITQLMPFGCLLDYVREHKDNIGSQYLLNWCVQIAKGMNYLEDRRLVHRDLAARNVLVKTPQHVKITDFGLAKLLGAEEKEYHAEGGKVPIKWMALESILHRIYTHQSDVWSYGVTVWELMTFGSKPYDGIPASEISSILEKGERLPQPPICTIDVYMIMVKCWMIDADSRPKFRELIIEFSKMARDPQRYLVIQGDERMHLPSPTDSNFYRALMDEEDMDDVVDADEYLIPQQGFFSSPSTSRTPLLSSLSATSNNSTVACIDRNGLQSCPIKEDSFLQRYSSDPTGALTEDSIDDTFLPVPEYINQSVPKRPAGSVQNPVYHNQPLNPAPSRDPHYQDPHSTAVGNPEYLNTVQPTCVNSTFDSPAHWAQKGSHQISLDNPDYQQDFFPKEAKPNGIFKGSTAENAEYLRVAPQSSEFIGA

RXF 393 = assay: NCI single dose screen, RXF 393; type: cell-based; settings: Homo sapiens; RXF 393, renal cancer; single dose 10^−5 M; read-out: growth inhibition percentage
Description: as §1, §2

Q: Which inhibition at 10 µM (OVCAR-8) does the source give for `CN1c2ccccc2C(=O)N(NC(=O)Nc2ccc(F)cc2)C1c1ccc([N+](=O)[O-])cc1` (centres unmarked) [Compound 6o, 1-(4-Fluorophenyl)-3–(1-methyl-2-(4-nitrophenyl)-4-oxo-1,4-dihydroquinazolin-3(2H)-yl)urea] here?
A: < 10%

Q: And the melting point?
A: 250 to 252 °C

Q: What about the inhibition at 10 µM (SR) of the same compound?
A: 12.2%

Q: And the inhibition at 10 µM (HCC-2998)?
A: < 10%

Q: What about the inhibition at 10 µM (NCI-H23) of the same compound?
A: < 10%

Q: What about the inhibition at 10 µM (SW-620) of the same compound?
A: < 10%

Q: What about the inhibition at 10 µM (OVCAR-3) of the same compound?
A: 22.7%

Q: What about the inhibition at 10 µM (RPMI-8226) of the same compound?
A: 22.4%

Q: What about the inhibition at 10 µM (M14) of the same compound?
A: 18%

Q: And the inhibition at 10 µM (SF-268)?
A: < 10%

Q: And the IC50 (human recombinant COX-2)?
A: 10.1 ± 1.01 µM

Q: What about the inhibition at 10 µM (HT29) of the same compound?
A: < 10%

Q: And the inhibition at 10 µM (SNB-75)?
A: < 10%

Q: And the inhibition at 10 µM (ACHN)?
A: < 10%

Q: What about the inhibition at 10 µM (A498) of the same compound?
A: < 10%

Q: And the IC50 (ovine COX-1)?
A: > 100 µM

Q: And the inhibition at 10 µM (NCI-H322M)?
A: < 10%

Q: And the inhibition at 10 µM (KM12)?
A: < 10%

Q: And the IC50 (wild-type EGFR)?
A: 52.4 ± 1.25 µM

Q: What about the inhibition at 10 µM (RXF 393) of the same compound?
A: < 10%

Q: Which inhibition at 10 µM (OVCAR-8) does the source give for `CN1c2ccccc2C(=O)N(NC(=O)Nc2ccccc2)C1c1ccc([N+](=O)[O-])cc1` (centres unmarked) [Compound 6e, 1-(1-Methyl-2-(4-nitrophenyl)-4-oxo-1,4-dihydroquinazolin-3(2H)-yl)-3-phenylurea] here?
A: < 10%

Q: What about the melting point of the same compound?
A: 241 to 243 °C

Q: What about the inhibition at 10 µM (SR) of the same compound?
A: < 10%

Q: And the inhibition at 10 µM (HCC-2998)?
A: < 10%

Q: And the inhibition at 10 µM (NCI-H23)?
A: < 10%

Q: And the inhibition at 10 µM (SW-620)?
A: < 10%

Q: What about the inhibition at 10 µM (OVCAR-3) of the same compound?
A: < 10%

Q: What about the inhibition at 10 µM (RPMI-8226) of the same compound?
A: < 10%

Q: And the inhibition at 10 µM (M14)?
A: 67.2%

Q: What about the inhibition at 10 µM (SF-268) of the same compound?
A: < 10%

Q: What about the “COX-2 SI” value (human recombinant COX-2) of the same compound?
A: 11.48

Q: What about the IC50 (human recombinant COX-2) of the same compound?
A: 0.83 ± 1.37 µM

Q: And the inhibition at 10 µM (HT29)?
A: < 10%

Q: And the inhibition at 10 µM (SNB-75)?
A: < 10%

Q: And the inhibition at 10 µM (ACHN)?
A: < 10%

Q: And the inhibition at 10 µM (A498)?
A: < 10%

Q: And the IC50 (ovine COX-1)?
A: 9.53 ± 1.21 µM

Q: And the inhibition at 10 µM (NCI-H322M)?
A: < 10%

Q: What about the inhibition at 10 µM (KM12) of the same compound?
A: < 10%

Q: And the IC50 (wild-type EGFR)?
A: 48.7 ± 3.47 µM

Q: What about the inhibition at 10 µM (RXF 393) of the same compound?
A: < 10%

Q: What does the source list for `CN1c2ccccc2C(=O)N(NC(=O)Nc2ccccc2)C1c1ccccc1` (centres unmarked) [Compound 6c, 1-(1-Methyl-4-oxo-2-phenyl-1,4-dihydroquinazolin-3(2H)-yl)-3-phenylurea]?
A: inhibition at 10 µM (OVCAR-8): < 10%; melting point: 180 to 181 °C; inhibition at 10 µM (SR): < 10%; inhibition at 10 µM (HCC-2998): < 10%; inhibition at 10 µM (NCI-H23): < 10%; inhibition at 10 µM (SW-620): < 10%; inhibition at 10 µM (OVCAR-3): 11.7%; inhibition at 10 µM (RPMI-8226): < 10%; inhibition at 10 µM (M14): < 10%; inhibition at 10 µM (SF-268): < 10%; COX-2 SI (human recombinant COX-2): 0.29; IC50 (human recombinant COX-2): 3.41 ± 1.83 µM; inhibition at 10 µM (HT29): < 10%; inhibition at 10 µM (SNB-75): < 10%; inhibition at 10 µM (ACHN): < 10%; inhibition at 10 µM (A498): < 10%; IC50 (ovine COX-1): 1 ± 1.78 µM; inhibition at 10 µM (NCI-H322M): < 10%; inhibition at 10 µM (KM12): < 10%; IC50 (wild-type EGFR): > 100 µM; inhibition at 10 µM (RXF 393): < 10%

Q: For `CN1c2ccccc2C(=O)N(NC(=O)Nc2ccccc2)C1c1ccc(F)cc1` (centres unmarked) [Compound 6d, 1-(2-(4-Fluorophenyl)-1-methyl-4-oxo-1,4-dihydroquinazolin-3(2H)-yl)-3-phenylurea], which inhibition at 10 µM (OVCAR-8) is on record?
A: < 10%

Q: And the melting point?
A: 230 to 232 °C

Q: What about the inhibition at 10 µM (SR) of the same compound?
A: < 10%

Q: What about the inhibition at 10 µM (HCC-2998) of the same compound?
A: < 10%

Q: And the inhibition at 10 µM (NCI-H23)?
A: < 10%

Q: And the inhibition at 10 µM (SW-620)?
A: < 10%

Q: And the inhibition at 10 µM (OVCAR-3)?
A: 12.5%

Q: And the inhibition at 10 µM (RPMI-8226)?
A: < 10%

Q: And the inhibition at 10 µM (M14)?
A: < 10%

Q: What about the inhibition at 10 µM (SF-268) of the same compound?
A: < 10%

Q: And the “COX-2 SI” value (human recombinant COX-2)?
A: 2.20

Q: And the IC50 (human recombinant COX-2)?
A: 2.07 ± 1.39 µM

Q: And the inhibition at 10 µM (HT29)?
A: < 10%

Q: What about the inhibition at 10 µM (SNB-75) of the same compound?
A: 13.8%

Q: And the inhibition at 10 µM (ACHN)?
A: < 10%

Q: What about the inhibition at 10 µM (A498) of the same compound?
A: < 10%

Q: And the IC50 (ovine COX-1)?
A: 4.56 ± 1.33 µM

Q: What about the inhibition at 10 µM (NCI-H322M) of the same compound?
A: < 10%

Q: And the inhibition at 10 µM (KM12)?
A: < 10%

Q: What about the IC50 (wild-type EGFR) of the same compound?
A: > 100 µM

Q: And the inhibition at 10 µM (RXF 393)?
A: < 10%
